In publication PMC7062746, “X-ray Crystallography and Electron Paramagnetic Resonance Spectroscopy Reveal Active Site Rearrangement of Cold-Adapted Inorganic Pyrophosphatase” (Scientific Reports, 2020):

Biological target: T1, Sh-PPase (Mn-Sh-PPase; Mg-Sh-PPase) (Shewanella sp. AS-11, UniProt L8AXY8)
T1 construct: gene ppia; recombinant full-length (no tag stated), expressed in E. coli BL21 (DE3); ammonium sulphate fractionation, anion exchange, gel filtration; family II PPases are homodimers
T1 sequence (L8AXY8 2-308): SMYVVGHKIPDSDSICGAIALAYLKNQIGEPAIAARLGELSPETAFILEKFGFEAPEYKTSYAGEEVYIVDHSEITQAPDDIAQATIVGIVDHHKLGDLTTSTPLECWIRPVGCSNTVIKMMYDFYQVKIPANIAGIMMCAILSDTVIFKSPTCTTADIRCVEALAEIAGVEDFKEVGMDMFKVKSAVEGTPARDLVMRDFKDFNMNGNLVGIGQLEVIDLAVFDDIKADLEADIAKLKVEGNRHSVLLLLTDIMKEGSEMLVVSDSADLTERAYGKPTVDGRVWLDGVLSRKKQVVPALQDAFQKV
Assay: CW X-band EPR of the di-Mn centre
Type: binding
Conditions: Mn-activated enzyme, pH 7.5, frozen solution

| SMILES | CW X-band EPR of the di-Mn centre (substrate analogue, di-Mn centre signal lost on binding (inferred binding)) | CW X-band EPR of the di-Mn centre (added as ammonium sulphate, substrate binding site) |
| --- | --- | --- |
| O=P(O)(O)CP(=O)(O)O [PCP, methylendiphosphonic acid] | binding of PCP induced the decomposition of the di-Mn centre | – |
| O=S(=O)(O)O [sulphate] | – | sulphate ion bound correctly to the substrate binding site |
